In ChEMBL document CHEMBL4390694, “Benzofuran-isatin hybrids tethered via different length alkyl linkers and their in vitro anti-mycobacterial activities” (Bioorg Med Chem, 2019):
Values after ≈ are worked out from the molar mass of the structure shown.

Assays:
[1] = tested on: Mycobacterium tuberculosis; assay: Antimycobacterial activity against drug-susceptible Mycobacterium tuberculosis H37Rv assessed as complete inhibition of bacterial growth incubated for 7 days by rapid direct susceptibility test; format: functional; settings: 168 h
[2] = Cytotoxicity against African green monkey Vero cells assessed as decrease in cell viability after 72 hrs by MTT assay; format: cell-based; settings: chlorocebus sabaeus
[3] = Selectivity index, ratio of CC50 for cytotoxicity against African green monkey Vero cells to MIC for antimycobacterial activity against drug-susceptible Mycobacterium tuberculosis H37Rv; format: toxicity, cell-based; settings: read-out: Selectivity Index
[4] = Metabolic stability in mouse liver microsomes assessed as half life; format: ADME, Microsome
[5] = Cmax in ICR mouse at 25 mg/kg, po administered as single dose and measured up to 24 hrs post dose; format: ADME, organism-based; set-up: dose 25 mg/kg, route oral; settings: in vivo
[6] = Elimination half life in ICR mouse at 25 mg/kg, po administered as single dose and measured up to 24 hrs post dose; format: ADME, organism-based; settings: in vivo, read-out: beta t1/2 (converted)
[7] = Tmax in ICR mouse at 25 mg/kg, po administered as single dose and measured up to 24 hrs post dose; format: ADME, organism-based; settings: in vivo
[8] = AUC (0 to infinity) in ICR mouse at 25 mg/kg, po administered as single dose and measured up to 24 hrs post dose; format: ADME, organism-based; set-up: dose 25 mg/kg, time infinity, route oral; settings: in vivo

SMILES | MIC [1] | CC50 at 72 h [2] | selectivity ratio [3] | half-life [4] | Cmax [5] | half-life [6] | Tmax [7] | AUC(0-inf) [8]
CCOC(=O)c1c(-c2ccc(F)cc2)oc2ccc(OCCCCCCN3C(=O)C(=O)c4cc(F)ccc43)cc12 | 0.25 µg/mL (≈ 0.457 µM) | 512 µM | 2048 |  |  |  |  | 
CNC(=O)c1c(-c2ccc(O)cc2)oc2ccc(O)c(CN3CCCCC3)c12 | < 0.06 µg/mL | > 1020 µM | > 16400 | > 1 h | 6830 ng/mL | 8.59 h | 3.12 h | 31800 ng·h/mL
CCOC(=O)c1c(-c2ccc(OC)cc2)oc2ccc(OCCCCCN3C(=O)C(=O)c4cc(F)ccc43)cc12 | 0.25 µg/mL (≈ 0.458 µM) | 128 µM | 512 |  |  |  |  | 
CCOC(=O)c1c(-c2ccc(F)cc2)oc2ccc(OCCCCCN3C(=O)C(=O)c4cc(OC)ccc43)cc12 | 0.5 µg/mL (≈ 0.916 µM) | 128 µM | 256 |  |  |  |  | 
CCOC(=O)c1c(-c2ccccc2)oc2ccc(OCCCN3C(=O)C(=O)c4cc(OC)ccc43)cc12 | 0.25 µg/mL (≈ 0.5 µM) | 256 µM | 1024 |  |  |  |  | 
CCOC(=O)c1c(-c2ccc(OC)cc2)oc2ccc(OCCCN3C(=O)C(=O)c4cc(F)ccc43)cc12 | 0.5 µg/mL (≈ 0.966 µM) | 256 µM | 512 |  |  |  |  | 
CCOC(=O)c1c(-c2ccc(OC)cc2)oc2ccc(OCCCN3C(=O)C(=O)c4ccccc43)cc12 | 1 µg/mL (≈ 2 µM) | 64 µM | 64 |  |  |  |  | 
CCOC(=O)c1c(-c2ccc(F)cc2)oc2ccc(OCCCN3C(=O)C(=O)c4ccccc43)cc12 | 2 µg/mL (≈ 4.1 µM) | 256 µM | 128 |  |  |  |  | 
CCOC(=O)c1c(-c2ccc(OC)cc2)oc2ccc(OCCCCN3C(=O)C(=O)c4cc(OC)ccc43)cc12 | 2 µg/mL (≈ 3.68 µM) | 64 µM | 32 |  |  |  |  | 
CCOC(=O)c1c(-c2ccc(OC)cc2)oc2ccc(OCCCCCCN3C(=O)C(=O)c4ccccc43)cc12 | 0.25 µg/mL (≈ 0.462 µM) | 256 µM | 1024 |  |  |  |  | 
CCOC(=O)c1c(-c2ccc(OC)cc2)oc2ccc(OCCCCCCN3C(=O)C(=O)c4cc(F)ccc43)cc12 | 0.125 µg/mL (≈ 0.223 µM) | 128 µM | 1024 | 0.527 h | 1220 ng/mL | 2.48 h | 1.76 h | 3680 ng·h/mL
CCOC(=O)c1c(-c2ccc(OC)cc2)oc2ccc(OCCCCN3C(=O)C(=O)c4ccccc43)cc12 | 0.5 µg/mL (≈ 0.974 µM) | > 1020 µM | > 2048 |  |  |  |  | 
CCOC(=O)c1c(-c2ccc(F)cc2)oc2ccc(OCCCN3C(=O)C(=O)c4cc(F)ccc43)cc12 | 1 µg/mL (≈ 1.98 µM) | 512 µM | 512 |  |  |  |  | 
CCOC(=O)c1c(-c2ccc(F)cc2)oc2ccc(OCCCN3C(=O)C(=O)c4cc(OC)ccc43)cc12 | 1 µg/mL (≈ 1.93 µM) | 128 µM | 128 |  |  |  |  | 
NNC(=O)c1ccncc1 [ISONIAZID] | 0.06 µg/mL (≈ 0.438 µM) |  |  |  |  |  |  | 
CO[C@H]1/C=C/O[C@@]2(C)Oc3c(C)c(O)c4c(O)c(c(/C=N/N5CCN(C)CC5)c(O)c4c3C2=O)NC(=O)/C(C)=C\C=C\[C@H](C)[C@H](O)[C@@H](C)[C@@H](O)[C@@H](C)[C@H](OC(C)=O)[C@@H]1C [RIFAMPIN] | 0.5 µg/mL (≈ 0.608 µM) |  |  |  |  |  |  | 
